Results reported in US11773078B2, “Furin inhibitors” (Glaxosmithkline Intellectual Property Development Limited, priority 2018, dated 2023).
Structures can show the parent of a compound that is named as a salt.

Legend:
[1] = target: T1, furin (endogenous protease) in U20S cells (Homo sapiens, UniProt P09958); test: Furin cell-based assay (image-based, Golgi-targeted GFP with BMP10 furin/PCSK cleavage site); settings: 24-hour incubation, read-out: furin golgi cell pXC50 (converted);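 further: Read-out is mean GFP fluorescence of Golgi puncta per cell by high-content imaging, retained when furin inhibited, over an eleven-point 0.00017–10 µM series, four-parameter fit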
T1 construct: the endogenous protease cleaves GFP; endogenous in cells; host or cells: U2OS cells transduced with a BacMam reporter

[2] = target: T2, Furin (108-574-Tev-Flag-His) enzyme (Homo sapiens, UniProt P09958); test: Furin enzyme assay; type: biochemical; settings: for IC50: read-out: furin enzyme pIC50 (converted)
T2 construct: Furin (108-574-Tev-Flag-His) enzyme was expressed and purified from CHO cells; TEV cleavage site (C); FLAG (C); His (C); made in house; host or cells: CHO cells
Procedure: Reactions were performed in black 384-well polystyrene low volume plates (Greiner). Furin (108-574-Tev-Flag-His) enzyme was expressed and purified from CHO cells. Compounds of the invention were dissolved in DMSO (1.0 mM) and serially diluted 1 to 3 with DMSO through eleven dilutions to provide a final compound concentration range from 0.00017 to 10 μM. 0.05 μL of each concentration was transferred to the corresponding well of an assay plate, and then 5 μL of 40 pM furin enzyme in assay buffer (100 mM HEPES pH7.5, 1 mM CaCl2 and 0.005% Triton X-100) was added using a Multidrop Combi (Thermo) to the compound plates, and mixed by inversion. […] The plates were centrifuged at 500×g for 1 minute and incubated at room temperature for two hours. Enzyme inhibition is then quantified using an Envision instrument (PerkinElmer).
Data were analyzed using AbaseXE 7.3, utilizing a four-parameter curve fit equation. The following values were used to define limits and/or constraints for each of the four parameters: • Minimum—limit −10 to 10 • Maximum—90 to 110 • Slope—limit 0.5 to 2.0 • pXC50 confidence interval—10
Raw counts obtained from the respective plate reader (Perkin Elmer) were captured for data analysis. Curves were generated using the equation: Y=A+[(B−A)/(1+(10^C/x)^D)] • where: A=minimum response • B=maximum response • C=log 10*XC50 • D=slope factor • x=log 10 compound concentration [M]
The results were recorded as pXC50 values (−C in the above equation)

T1 sequence (P09958 108-794): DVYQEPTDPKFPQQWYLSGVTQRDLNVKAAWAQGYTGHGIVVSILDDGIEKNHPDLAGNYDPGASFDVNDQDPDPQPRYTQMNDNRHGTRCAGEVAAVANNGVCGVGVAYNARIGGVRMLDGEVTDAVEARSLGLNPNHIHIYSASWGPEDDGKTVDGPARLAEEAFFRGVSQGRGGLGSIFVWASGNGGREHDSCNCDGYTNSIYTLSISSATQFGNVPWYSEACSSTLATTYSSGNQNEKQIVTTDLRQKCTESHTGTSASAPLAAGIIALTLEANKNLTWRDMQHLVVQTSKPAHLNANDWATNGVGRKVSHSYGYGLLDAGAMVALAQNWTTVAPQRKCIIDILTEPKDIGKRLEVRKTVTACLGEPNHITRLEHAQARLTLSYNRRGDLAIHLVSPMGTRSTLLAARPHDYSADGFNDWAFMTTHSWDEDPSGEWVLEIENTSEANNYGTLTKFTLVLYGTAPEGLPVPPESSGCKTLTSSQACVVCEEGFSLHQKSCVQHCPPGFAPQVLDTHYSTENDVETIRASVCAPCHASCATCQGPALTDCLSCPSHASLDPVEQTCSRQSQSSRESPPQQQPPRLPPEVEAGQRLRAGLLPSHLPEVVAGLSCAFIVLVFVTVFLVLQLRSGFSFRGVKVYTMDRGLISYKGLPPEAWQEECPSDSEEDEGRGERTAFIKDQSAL
T2 sequence (P09958 108-574): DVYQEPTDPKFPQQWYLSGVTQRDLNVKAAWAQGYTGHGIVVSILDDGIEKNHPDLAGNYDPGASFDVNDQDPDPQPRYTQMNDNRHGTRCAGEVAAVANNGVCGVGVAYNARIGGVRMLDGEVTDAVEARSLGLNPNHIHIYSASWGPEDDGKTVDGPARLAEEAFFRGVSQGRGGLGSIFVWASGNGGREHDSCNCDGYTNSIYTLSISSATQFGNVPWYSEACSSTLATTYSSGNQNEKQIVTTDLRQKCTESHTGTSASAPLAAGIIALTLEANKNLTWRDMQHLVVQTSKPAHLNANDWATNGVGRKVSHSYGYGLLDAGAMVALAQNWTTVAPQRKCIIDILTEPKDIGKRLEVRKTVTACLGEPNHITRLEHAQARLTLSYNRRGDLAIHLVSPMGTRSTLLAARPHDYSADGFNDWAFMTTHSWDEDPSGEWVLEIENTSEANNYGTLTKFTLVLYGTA

Compound | EC50 [1] [nM] | furin enzyme pIC50 [2] | IC50 [2] [nM]
CC(=O)NCC1CCN(Cc2cc(Oc3ccc(N4CC[C@@H](N)[C@@H](F)C4)nc3)nc(-c3cc(Cl)cc(Cl)c3)c2)CC1 (relative stereo) [Example 182] | 1.58 | 9.3 | –
CC(=O)NCC1CCN(Cc2cc(Oc3ccc(N4C[C@H](CN)[C@@H](O)C4)nc3)nc(-c3cc(Cl)cc(Cl)c3)c2)CC1 (relative stereo) [Example 184, N-((1-((2-((6-(trans-3-(Aminomethyl)-4-hydroxypyrrolidin-1-yl)pyridin-3-yl)oxy)-6-(3,5-dichlorophenyl)pyridin-4-yl)methyl)piperidin-4-yl)methyl)acetamide] | 15.8 | – | 0.251
CNC(=O)CN1CCN(Cc2cc(Oc3ccc(N4CCNCC4)nc3)nc(-c3cc(Cl)cc(Cl)c3)c2)CC1 [Example 1, 2-(4-((2-(3,5-Dichlorophenyl)-6-((6-(piperazin-1-yl)pyridin-3-yl)oxy)pyridin-4-yl)methyl)piperazin-1-yl)-N-methylacetamide, 5 hydrochloride] | 1.58 | 8.3 | –
CC(=O)NCC1(O)CCN(Cc2cc(Oc3ccc(N4CCNCC4)nc3)nc(-c3cc(Cl)cc(Cl)c3)c2)CC1 [Example 2, N-((1-((2-(3,5-Dichlorophenyl)-6-((6-(piperazin-1-yl)pyridine-3-yl)oxy)pyridin-4-yl)methyl)-4-hydroxypiperidin-4-yl)methyl)acetamide] | 39.8 | 8.8 | –
O=C(O)CCC1CCN(Cc2cc(Oc3ccc(N4CCNCC4)nc3)nc(-c3cc(Cl)cc(Cl)c3)c2)CC1 [Example 3, 3-(1-((2-(3,5-Dichlorophenyl)-6-((6-(piperazin-1-yl)pyridin-3-yl)oxy)pyridin-4-yl)methyl)piperidin-4-yl)propanoic acid, 4 hydrochloride] | 50.1 | 8.9 | –
O=C(O)CC1CCN(Cc2cc(Oc3ccc(N4CCNCC4)nc3)nc(-c3cc(Cl)cc(Cl)c3)c2)CC1 [Example 4, 2-(1-((2-(3,5-Dichlorophenyl)-6-((6-(piperazin-1-yl)pyridin-3-yl)oxy)pyridin-4-yl)methyl)piperidin-4-yl)acetic acid, 4 hydrochloride] | 31.6 | 8.7 | –
CNC(=O)NCC1(O)CCN(Cc2cc(Oc3ccc(N4CCNCC4)nc3)nc(-c3cc(Cl)cc(Cl)c3)c2)CC1 [Example 5, 1-((1-((2-(3,5-Dichlorophenyl)-6-((6-(piperazin-1-yl)pyridin-3-yl)oxy)pyridin-4-yl)methyl)-4-hydroxypiperidin-4-yl)methyl)-3-methylurea, 4 hydrochloride] | 63.1 | 9.1 | –
COC(=O)NCC1(O)CCN(Cc2cc(Oc3ccc(N4CCNCC4)nc3)nc(-c3cc(Cl)cc(Cl)c3)c2)CC1 [Example 6, Methyl ((1-((2-(3,5-dichlorophenyl)-6-((6-(piperazin-1-yl)pyridin-3-yl)oxy)pyridin-4-yl)methyl)-4-hydroxypiperidin-4-yl)methyl)carbamate, 4 hydrochloride] | 7.94 | 8.5 | –
O=S(=O)(O)CCC1CCN(Cc2cc(Oc3ccc(N4CCNCC4)nc3)nc(-c3cc(Cl)cc(Cl)c3)c2)CC1 [Example 7, 2-(1-((2-(3,5-Dichlorophenyl)-6-((6-(piperazin-1-yl)pyridin-3-yl)oxy)pyridin-4-yl)methyl)piperidin-4-yl)ethanesulfonic acid, 4 hydrochloride] | 79.4 | 9.2 | –
O=S(=O)(O)CC1CCN(Cc2cc(Oc3ccc(N4CCNCC4)nc3)nc(-c3cc(Cl)cc(Cl)c3)c2)CC1 [Example 8, (1-((2-(3,5-Dichlorophenyl)-6-((6-(piperazin-1-yl)pyridin-3-yl)oxy)pyridin-4-yl)methyl)piperidin-4-yl)methanesulfonic acid, 4 hydrochloride] | 200 | 8.9 | –
CC(=O)NCC1CCN(Cc2cc(Oc3ccc(N4CCNCC4)nc3)nc(-c3cc(Cl)cc(Cl)c3)c2)CC1 [Example 9, N-((1-((2-(3,5-Dichlorophenyl)-6-((6-(piperazin-1-yl)pyridin-3-yl)oxy)pyridin-4-yl)methyl)piperidin-4-yl)methyl)acetamide, 4 hydrochloride] | 7.94 | 9.2 | –
CC(=O)NCC1CCN(Cc2cc(Oc3ccc(N4CCN(CCC(N)=O)CC4)nc3)nc(-c3cc(Cl)cc(Cl)c3)c2)CC1 [Example 13, hydrochloride] | 7.94 | 9.1 | –
CC(=O)NCC1CCN(Cc2cc(Oc3ccc(N4CCN(CCc5nnn[nH]5)CC4)nc3)nc(-c3cc(Cl)cc(Cl)c3)c2)CC1 [Example 14, N-((1-((2-((6-(4-(2-(1H-Tetrazol-5-yl)ethyl)piperazin-1-yl)pyridin-3-yl)oxy)-6-(3,5-dichlorophenyl)pyridin-4-yl)methyl)piperidin-4-yl)methyl)acetamide, 4 hydrochloride] | 631 | 9.5 | –
CC(=O)NCC1CCN(Cc2cc(Oc3ccc(N4CCN(CC[S+](C)[O-])CC4)nc3)nc(-c3cc(Cl)cc(Cl)c3)c2)CC1 (stereo not drawn) [Example 15, N-((1-((2-(3,5-Dichlorophenyl)-6-((6-(4-(2-(methylsulfinyl)ethyl)piperazin-1-yl)pyridin-3-yl)oxy)pyridin-4-yl)methyl)piperidin-4-yl)methyl)acetamide, 4 hydrochloride] | 25.1 | 8.5 | –
CC(=O)NCC1CCN(Cc2cc(Oc3ccc(N4CCN(C(C)CCS(C)(=O)=O)CC4)nc3)nc(-c3cc(Cl)cc(Cl)c3)c2)CC1 (stereo not drawn) [Example 16] | 1.26 | 9 | –
CNC(=O)NCC1CCN(Cc2cc(Oc3cnc(N4CCN(CCC(C)[S+](C)[O-])CC4)nc3)nc(-c3cc(Cl)cc(Cl)c3)c2)CC1 (stereo not drawn) [Example 17, 1-((1-((2-(3,5-dichlorophenyl)-6-((2-(4-(3-(methylsulfinyl)butyl)piperazin-1-yl)pyrimidin-5-yl)oxy)pyridin-4-yl)methyl)piperidin-4-yl)methyl)-3-methylurea] | 2 | – | 0.0316
CC(=O)NCC1CCN(Cc2cc(Oc3ncc(N)cn3)cc(-c3cc(Cl)cc(Cl)c3)c2)CC1 [Example 43, N-((1-((5-((5-aminopyrimidin-2-yl)oxy)-3′,5′-dichloro-[1,1′-biphenyl]-3-yl)methyl)piperidin-4-yl)methyl)acetamide] | – | 6 | –
COC(=O)NC(=O)CCN1CCN(c2ncc(Oc3cc(CN4CCC(CNC(C)=O)CC4)cc(-c4cc(Cl)cc(Cl)c4)n3)cn2)CC1 [Example 172, methyl (3-(4-(5-((4-((4-(acetamidomethyl)piperidin-1-yl)methyl)-6-(3,5-dichlorophenyl)pyridin-2-yl)oxy)pyrimidin-2-yl)piperazin-1-yl)propanoyl)carbamate] | – | – | 0.251
COC(=O)NC(=O)CCN1CCN(c2ncc(Oc3cc(CN4CCC(CNC(C)=O)CC4)cc(-c4cc(Cl)cc(Cl)c4)n3)cn2)CC1 [Example 175, methyl (3-(4-(5-((4-((4-(acetamidomethyl)piperidin-1-yl)methyl)-6-(3,5-dichlorophenyl)pyridin-2-yl)oxy)pyrimidin-2-yl)piperazin-1-yl)propanoyl)carbamate] | – | 9.2 | –
CNC(=O)NCC1CCN(Cc2cc(Oc3ccc(N4CCN(CCCS(N)(=O)=O)CC4)nc3)nc(-c3cc(Cl)cc(Cl)c3)c2)CC1 [Example 260, 3-(4-(5-((6-(3,5-dichlorophenyl)-4-((4-((3-methylureido)methyl)piperidin-1-yl)methyl)pyridin-2-yl)oxy)pyridin-2-yl)piperazin-1-yl)propane-1-sulfonamide] | 6.31 | – | –
CN1CCN(c2ncc(Oc3cc(CN4CC[C@@H]5[C@H](CC4)[C@H]5C(=O)O)cc(-c4cc(Cl)cc(Cl)c4)n3)cn2)CC1 [Example 321, (1R,7S,8r)-4-((2-(3,5-dichlorophenyl)-6-((2-(4-methylpiperazin-1-yl)pyrimidin-5-yl)oxy)pyridin-4-yl)methyl)-4-azabicyclo[5.1.0]octane-8-carboxylic acid] | 15.8 | – | –
C[C@H](CC1CCN(Cc2cc(Oc3ccc(N4CCN(C)CC4)nn3)nc(-c3cc(Cl)cc(Cl)c3)c2)CC1)C(=O)O [Example 364, (R)-3-(1-((2-(3,5-dichlorophenyl)-6-((6-(4-methylpiperazin-1-yl)pyridazin-3-yl)oxy)pyridin-4-yl)methyl)piperidin-4-yl)-2-methylpropanoic acid] | 31.6 | – | –
CN1CCN(c2cnc(Oc3nc(-c4cc(Cl)cc(Cl)c4)cc(CN4CCC(CC(=O)O)CC4)c3F)cn2)CC1 [Example 390, 2-(1-((6-(3,5-Dichlorophenyl)-3-fluoro-2-((5-(4-methylpiperazin-1-yl)pyrazin-2-yl)oxy)pyridin-4-yl)methyl)piperidin-4-yl)acetic acid] | – | 8.3 | –
